# Assay results as given in patent US7611691B2, “Compounds for treatment of copper overload” (The Curators of the University of Missouri, priority 2002, dated 2009).
# Key:
# [1] = Nitricoxide radical absorbance capacity (NORAC)
# Description: (§1) The NORAC value of 18.8 μmolTE/g found for TBPAL (Table 1) is among the highest ever reported for antioxidant drugs.
# ^Trolox was used as the calibration standard and the NORAC result is expressed as μmole Trolox equivalent (TE) per gram.
# [2] = Oxidation of THPAL by 35% aqueous H2O2; assay type: physicochemical
# Experimental: Hydrogen peroxide (0.2 ml, 35%, […]) was added dropwise to a solution of THPAL (0.5 g, 0.014 mmol) in water at room temperature. The reaction mixture was stirred at room temperature for one hour. The solvent was then removed under reduced pressure. The crude product was washed with methanol (5×4 ml), and then characterized as pure O═P(CH2NHCH(CH3)—COOH)3 by NMR spectroscopy. ^31P{^1H} NMR (D2O): 37.07 (s); ^1H NMR (D2O): 1.60 (d, CH3, 9H), 3.96-3.89 (m. CH2 and CH, 9H); ^13C NMR (D2O): 42.9 (d, P—CH2, JC-P=70.05 Hz), 59.6 (d, NH—CH, ^2JC-P=8.25 Hz), 15.59 (s, CH3), 175.15 (s, COOH).
# [3] = Hydroxyl radical absorbance capacity (HORAC); details: Gallic Acid calibration standard
# Description: as §1
# ^+Gallic Acid was used as the calibration standard and the HORAC result is expressed as mg Gallic Acid equivalent (GAE) per gram.
# [4] = Reduction of copper levels in swine after oral Cu loading; assay type: in vivo; details: 15 mg/kg twice daily for three days
# Experimental: Eight weanling pigs weighing 10-12 kg were randomly assigned to one of three groups, receiving no thpalanine (N=2), thpalanine via gavage (N=3) or thpalanine intravenously (N=3). All eight pigs underwent 21 consecutive days of oral Cu loading with 10 mg of Cu from copper sulfate per kg of body weight twice daily. Loading was determined by protocol in Mineral Tolerance of Domestic Animals. Pigs also received 10 mg/kg body weight of Cu in their diet. After 21 days dosing with copper sulfate was discontinued. Thpalanine was given to the two drug-treated groups beginning two days following the end of Cu loading. Each of the thpalanine treatment groups (oral and intravenous) received 15 mg thpalanine per kg body weight twice daily for three consecutive days. Four 24 hour urine collections were done to determine urinary Cu excretion beginning 24 hours prior to thpalanine treatment.
# Following day 3 of treatment, the pigs were euthanized and a sample of liver/kidney were collected and stored at −10° F. until copper analyses. Statistical analysis was performed using ANOVA. Multiple pairwise comparisons were made using the Tukey test and statistical significance was set at P<0.05.
# [5] = Stability of THPAL in bovine serum albumin (BSA) solution by 31P NMR; assay type: physicochemical
# Experimental: 50 mg of BSA (3.3%) was dissolved in 1.5 ml of water. 30 mg of THPAL (0.06 M) was added to this to obtain a clear solution. The measurements of stable (or unoxidized) forms of THPAL in BSA were performed using ^31P NMR spectroscopy. The ^31P NMR resonance of THPAL is very sensitive to alterations on the back bone structure. The temperature of the mixture of THPAL and BSA in water was maintained at 9-12° C.
# There was no detectable change in the ^31P NMR resonance until 12-15 hours after mixing the THPAL and BSA. After 24 hours, about 20% THPAL was transferred to uncharacterized compound.
# [6] = Attempted oxidation of THPAL with molecular oxygen; assay type: physicochemical; details: aerated water, refluxed for several hours under air
# Experimental: THPAL (0.5 g, […]) was dissolved in aerated water (25 ml).
# [7] = Oxidation of THPAL using gaseous hydrogen peroxide; assay type: physicochemical; details: aqueous solution exposed to hydrogen peroxide vapors; after two days
# [8] = Oxygen radical absorbance capacity (ORAC hydro FL); details: Fluorescein probe; Trolox calibration standard
# Description: as §1
# Trolox, a water-soluble Vitamin E analog, was used as the calibration standard and the ORAC result is expressed as micromole Trolox equivalent (TE) per gram.
smiles,measurement,setting,value
"CC(NCP(CNC(C)C(=O)O)CNC(C)C(=O)O)C(=O)O (centres unmarked) [THPAL, 2-[({Bis-[(1-carboxy-ethylamino)-methyl]-phosphanyl}-methyl)-amino]-propionic acid]",NORAC value,[1],18.8 μmolTE/g
same,NORAC,[1]; Trolox calibration standard,18.81 μmoleTE/g
same,oxidation of THPAL to the corresponding oxide by oxygen radicals generated by peroxide,[2],complete oxidation
same,HORAC,[3],Not Detectable
same,copper levels in swine kidneys,"[4]; Cu-loaded weanling pigs, intravenous",significantly reduced
same,"adverse effects (clinical observations, rate of gain, gross necropsy)","[4]; pigs, oral or intravenous",no adverse effects
same,time with no detectable change in the 31P NMR resonance after mixing THPAL and BSA,"[5]; 3.3% BSA in water, 0.06 M THPAL, 9-12° C.",12 to 15 h
same,THPAL transferred to uncharacterized compound,"[5]; BSA solution, after 24 hours, 9-12° C.",about 20%
same,oxidation state of THPAL in BSA solution (31P NMR),[5]; after 72 hours,remained unoxidized
same,oxidative stability of THPAL in BSA solution (31P NMR),[5]; after five days,no oxidation
same,stability in BSA solutions,[5]; overall conclusion,stable
same,oxidation or decomposition by 31P NMR,[6],did not show any oxidation or detectable decomposition
same,conversion to O═P(CH2NHCH(CH3)COOH)3,[7],Complete conversion
same,ORAChydroFL,[8],31 μmoleTE/g
